The target of series [1] is T1, Peroxisome proliferator-activated receptor alpha (Homo sapiens, UniProt Q07869).
T1 sequence (Q07869 whole entry): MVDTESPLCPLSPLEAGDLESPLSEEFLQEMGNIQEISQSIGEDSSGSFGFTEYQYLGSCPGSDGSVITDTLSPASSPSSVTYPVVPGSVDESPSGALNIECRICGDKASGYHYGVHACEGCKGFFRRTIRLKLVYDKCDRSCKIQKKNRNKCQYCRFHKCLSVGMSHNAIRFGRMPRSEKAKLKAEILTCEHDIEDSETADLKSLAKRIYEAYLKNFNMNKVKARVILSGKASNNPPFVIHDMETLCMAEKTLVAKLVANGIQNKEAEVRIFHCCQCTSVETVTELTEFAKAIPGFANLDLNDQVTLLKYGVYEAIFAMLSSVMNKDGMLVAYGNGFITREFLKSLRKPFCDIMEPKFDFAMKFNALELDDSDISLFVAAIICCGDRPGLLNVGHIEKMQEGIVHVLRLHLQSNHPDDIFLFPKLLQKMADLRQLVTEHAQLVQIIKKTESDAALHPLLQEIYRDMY
Put plainly: Agonist activity at human PPARalpha ligand binding domain expressed in african green monkey CV1 cells co-transfected with fused Gal4-DBD by transactivation assay. Format: cell-based, CV-1.

Series [2] has as its target T2, Peroxisome proliferator-activated receptor alpha (Homo sapiens) (UniProt Q07869).
T2 sequence (whole entry): T1 sequence (Q07869 whole entry)
Put plainly: Agonist activity at human PPARalpha ligand binding domain expressed in african green monkey CV1 cells co-transfected with fused Gal4-DBD by transactivation assay relative to gemfibrozil. It is filed as cell-based. The settings on record: CV-1.

Series [3] has as its system Mus musculus. Put plainly: Antihyperglycemic effect in db/db mouse assessed as inhibition of blood glucose at 3 mg/kg, po after 5 days. The settings on record: 120 h. Format: functional.
For series [4], the system named is Mus musculus. Put plainly: Antihyperglycemic effect in db/db mouse assessed as inhibition of blood glucose at 0.3 mg/kg, po after 5 days. Format: functional. The following applies: 120 h.
The subject of series [5] is Mus musculus. Put plainly: Antihyperglycemic effect in db/db mouse assessed as inhibition of blood glucose at 3 mg/kg, po after 4 days. Format: functional. The following applies: 96 h.
Series [6] concerns Mus musculus. Put plainly: Antihyperglycemic effect in db/db mouse assessed as inhibition of blood glucose at 3 mg/kg, po after 7 days. It is filed as functional. The following applies: 168 h.
Series [7] relates to Mus musculus. Put plainly: Antihyperglycemic effect in db/db mouse assessed as inhibition of blood glucose at 3 mg/kg, po after 11 days. Format: functional. The settings on record: 264 h.
In series [8] the test system is Mus musculus. Put plainly: Antihyperglycemic effect in db/db mouse assessed as inhibition of blood glucose at 0.3 mg/kg, po after 4 days. It is filed as functional. The following applies: 96 h.
In series [9] the test system is Mus musculus. Put plainly: Antihyperglycemic effect in db/db mouse assessed as inhibition of blood glucose at 0.3 mg/kg, po after 7 days. It is filed as functional. The settings on record: 168 h.
Series [10] deals with Mus musculus. Put plainly: Antihyperglycemic effect in db/db mouse assessed as inhibition of blood glucose at 0.3 mg/kg, po after 11 days. It is filed as functional. The settings on record: 264 h.
For series [11], the system named is Mus musculus. Put plainly: Toxicity in db/db mouse assessed as weight gain at 3 mg/kg, po after 4 days. The settings on record: in vivo, 96 h. Also on record: dose 3 mg/kg, route oral. It is filed as organism-based.
Series [12] relates to Mus musculus. Put plainly: Toxicity in db/db mouse assessed as weight gain at 3 mg/kg, po after 7 days. It is filed as organism-based. The settings on record: in vivo, 168 h. Also on record: dose 3 mg/kg, route oral.
The subject of series [13] is Mus musculus. Put plainly: Toxicity in db/db mouse assessed as weight gain at 3 mg/kg, po after 11 days. Format: organism-based. Also on record: dose 3 mg/kg, route oral. The following applies: in vivo, 264 h.
For series [14], the system named is Mus musculus. Put plainly: Toxicity in db/db mouse assessed as weight gain at 0.3 mg/kg, po after 4 days. It is filed as organism-based. Also on record: dose 0.3 mg/kg, route oral. The following applies: in vivo, 96 h.
For series [15], the system named is Mus musculus. Put plainly: Toxicity in db/db mouse assessed as weight gain at 0.3 mg/kg, po after 7 days. It is filed as organism-based. The settings on record: in vivo, 168 h. Also on record: dose 0.3 mg/kg, route oral.
For series [16], the system named is Mus musculus. Put plainly: Toxicity in db/db mouse assessed as weight gain at 0.3 mg/kg, po after 11 days. Also on record: dose 0.3 mg/kg, route oral. The settings on record: in vivo, 264 h. It is filed as organism-based.
The target of series [17] is T3, Peroxisome proliferator-activated receptor gamma (Homo sapiens, UniProt P37231).
T3 sequence (P37231 whole entry): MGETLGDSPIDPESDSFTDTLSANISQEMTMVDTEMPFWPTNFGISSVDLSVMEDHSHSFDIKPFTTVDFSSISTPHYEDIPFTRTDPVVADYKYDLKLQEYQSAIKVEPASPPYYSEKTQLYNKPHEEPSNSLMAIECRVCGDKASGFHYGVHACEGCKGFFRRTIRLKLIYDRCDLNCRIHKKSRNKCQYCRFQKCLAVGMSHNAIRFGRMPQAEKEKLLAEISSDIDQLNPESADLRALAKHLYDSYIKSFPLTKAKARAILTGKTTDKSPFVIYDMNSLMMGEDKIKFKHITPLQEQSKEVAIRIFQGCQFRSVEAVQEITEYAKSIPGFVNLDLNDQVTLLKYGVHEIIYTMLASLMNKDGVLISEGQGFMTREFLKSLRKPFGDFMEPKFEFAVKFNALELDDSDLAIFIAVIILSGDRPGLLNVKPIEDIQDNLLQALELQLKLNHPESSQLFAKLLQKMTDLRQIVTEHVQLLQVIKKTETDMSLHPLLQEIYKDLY
Description: Agonist activity at human PPARgamma ligand binding domain expressed in african green monkey CV1 cells co-transfected with fused Gal4-DBD by transactivation assay

Another series has as its system CV-1. Put plainly: Ratio of EC50 for human PPARalpha ligand binding domain expressed in african green monkey CV1 cells to EC50 for human PPARgamma ligand binding domain expressed in african green monkey CV1 cells. It is filed as cell-based.

Molecules are shown by their SMILES.

As a reminder, the EC50 is the concentration that produces a half-maximal response. As usually defined, the inhibition in vivo is the drop in the measured response relative to a control, in per cent. On to `CCO[C@@H](Cc1cccc(/C(C)=N/OCc2ccc(F)cc2)c1)C(=O)O`, for which the EC50 in series [1] was 5.9 µM; in series [17] it was 0.139 µM. Moreover, the Emax in [2] was found to be 299%. In addition, the inhibition in vivo at 3 mg/kg amounted to 61% in the series with Mus musculus [3], 64% in the series with Mus musculus [5], 73% in the series with Mus musculus [6] and 71% with Mus musculus [7]. Also, the inhibition in vivo at 0.3 mg/kg in the series on Mus musculus [4] amounted to 40.7%; with Mus musculus [8], 39%; in the series on Mus musculus [9] it was 58%; in the series with Mus musculus [10] it was 68%. Besides, the Activity with Mus musculus [11] came out at 2.1 g; in the series on Mus musculus [12], 3.6 g; with Mus musculus [13] it was 5.6 g; with Mus musculus [14] it was 1.9 g; with Mus musculus [15], 3.6 g; in the series on Mus musculus [16] it was 5.6 g.
In the case of `CCO[C@@H](Cc1cccc(/C(C)=N/OCc2ccc(Cl)cc2)c1)C(=O)O`, the EC50 in [1] is 7.22 µM; in [17] it was 0.028 µM. This molecule also displayed an Emax in series [2] of 386%. In addition, the Ratio EC50 in the series on CV-1 stood at 260. The inhibition in vivo at 3 mg/kg amounted to 60.1% with Mus musculus [3], 61% in the series on Mus musculus [5], 73% with Mus musculus [6] and 76% in the series with Mus musculus [7]. The inhibition in vivo at 0.3 mg/kg came out at 19.3% in the series on Mus musculus [4], 63% in the series with Mus musculus [8], 60% with Mus musculus [9] and 71% in the series with Mus musculus [10]. For the same molecule, the Activity in the series on Mus musculus [11] stood at 2.5 g; in the series with Mus musculus [12] it was 3.7 g; in the series on Mus musculus [13], 5.3 g; with Mus musculus [14], 1.9 g; in the series with Mus musculus [15], 3.7 g; in the series with Mus musculus [16], 6 g.

For the origin of these results see ChEMBL document CHEMBL1140178, “Design, synthesis, and biological evaluation of novel constrained meta-substituted phenyl propanoic acids as peroxisome proliferator-activated receptor alpha and gamma dual agonists” (J Med Chem, 2008).
